For 30 molecules, IC50 results are on record in patent publication US20180243298A1, “TRPV3 MODULATORS” (AbbVie Inc., priority 2015, published 2018).

One may read the IC50 as the concentration at which inhibition is half-maximal.

Some results are limits rather than exact numbers.

The assay addresses T1, human TRPV3 (Homo sapiens, UniProt Q8NET8).
T1 construct: expressed in transfected cells; host or cells: HEK293
T1 sequence (Q8NET8 1-790): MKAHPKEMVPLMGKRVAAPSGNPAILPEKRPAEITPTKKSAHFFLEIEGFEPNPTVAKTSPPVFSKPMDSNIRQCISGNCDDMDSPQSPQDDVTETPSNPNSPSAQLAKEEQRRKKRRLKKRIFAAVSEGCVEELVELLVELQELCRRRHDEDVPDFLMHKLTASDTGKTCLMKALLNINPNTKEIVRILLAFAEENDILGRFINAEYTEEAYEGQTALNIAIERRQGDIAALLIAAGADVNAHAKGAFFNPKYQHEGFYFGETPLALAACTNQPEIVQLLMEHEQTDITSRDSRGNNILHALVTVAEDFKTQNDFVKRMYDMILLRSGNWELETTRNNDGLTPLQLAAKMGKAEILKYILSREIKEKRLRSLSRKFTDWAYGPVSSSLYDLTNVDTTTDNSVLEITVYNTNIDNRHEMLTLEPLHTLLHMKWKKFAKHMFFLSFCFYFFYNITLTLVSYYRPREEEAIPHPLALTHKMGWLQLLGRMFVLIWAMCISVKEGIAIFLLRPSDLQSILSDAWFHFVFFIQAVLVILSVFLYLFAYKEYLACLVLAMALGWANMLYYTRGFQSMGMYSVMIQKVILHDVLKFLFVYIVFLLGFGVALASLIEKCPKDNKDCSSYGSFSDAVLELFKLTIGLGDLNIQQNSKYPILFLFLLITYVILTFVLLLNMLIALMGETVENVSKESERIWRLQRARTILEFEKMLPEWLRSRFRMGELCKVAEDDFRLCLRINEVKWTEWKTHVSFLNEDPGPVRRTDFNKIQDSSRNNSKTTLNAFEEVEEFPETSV
The experiment in a line: Calcium flux assay (FLIPR TETRA), recombinant HEK293 cells expressing TRPV3, 2-APB response. Format: cell-based. The settings on record: 2-APB at its EC80. In short, it runs like this:
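Response is the peak fluorescence increase over baseline, as a percentage of the compound-free response to 2-APB at EC80. Calcium flux recorded on FLIPR TETRA in stable human or mouse TRPV3 HEK293 cells after 90–120 min Calcium-4 dye loading.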
For orientation: Calcium assays in cells follow changes in intracellular calcium, usually with a dye or a luminescent sensor.
As for `CO/N=C(\C)c1sc(NC(=O)c2c(OC)ncnc2OC)nc1-c1ccc(C(F)(F)F)cn1` [Example 89, 4,6-dimethoxy-N-{5-[(1E)-N-methoxyethanimidoyl]-4-[5-(trifluoromethyl)pyridin-2-yl]-1,3-thiazol-2-yl}pyrimidine-5-carboxamide], the concentration for half-maximal inhibition (IC50) is under 50 nM.

In the case of `COc1ncnc(OC)c1C(=O)Nc1nc(-c2ccc(C(F)F)cn2)cs1` [Example 94, N-{4-[5-(difluoromethyl)pyridin-2-yl]-1,3-thiazol-2-yl}-4,6-dimethoxypyrimidine-5-carboxamide], the IC50 was in the range of 100 to 500 nM. The same measure for `COc1ncnc(OC)c1C(=O)Nc1nc(-c2ccc(C(F)(F)F)cn2)cs1` [Example 73, 4,6-dimethoxy-N-{4-[5-(trifluoromethyl)pyridin-2-yl]-1,3-thiazol-2-yl}pyrimidine-5-carboxamide]: under 50 nM. As for `CCOc1ncnc(OCC)c1C(=O)Nc1nc(C(F)(F)F)c(CC)s1` [Example 71, 4,6-diethoxy-N-[5-ethyl-4-(trifluoromethyl)-1,3-thiazol-2-yl]pyrimidine-5-carboxamide], the 50% inhibitory concentration (IC50) is under 50 nM. The same measure for `COc1ncnc(OC)c1C(=O)Nc1nc(CC(C)(C)C)cs1` [Example 191, N-[4-(2,2-dimethylpropyl)-1,3-thiazol-2-yl]-4,6-dimethoxypyrimidine-5-carboxamide]: 50 to 100 nM; for `COc1ncnc(OC)c1C(=O)Nc1nc(C(F)(F)F)c(CN(C)CC(C)C)s1` [Example 54, 4,6-dimethoxy-N-[5-{[methyl(2-methylpropyl)amino]methyl}-4-(trifluoromethyl)-1,3-thiazol-2-yl]pyrimidine-5-carboxamide]: under 50 nM; for `CCOc1ncnc(OCC)c1C(=O)Nc1nc(C(F)(F)F)c(-c2ccc(Cl)cc2)s1` [Example 5, N-[5-(4-chlorophenyl)-4-(trifluoromethyl)-1,3-thiazol-2-yl]-4,6-diethoxypyrimidine-5-carboxamide]: 500 to 1000 nM. As to `COc1ncnc(OC)c1C(=O)Nc1nc(C(F)(F)F)c(C=O)s1` [Example 47, N-[5-formyl-4-(trifluoromethyl)-1,3-thiazol-2-yl]-4,6-dimethoxypyrimidine-5-carboxamide], the IC50 is over 1000 nM.

On to `COc1ncnc(OC)c1C(=O)Nc1nc(C(F)(F)F)c(C#CC(C)(C)O)s1` [Example 19, N-[5-(3-hydroxy-3-methylbut-1-yn-1-yl)-4-(trifluoromethyl)-1,3-thiazol-2-yl]-4,6-dimethoxypyrimidine-5-carboxamide], for which the IC50 fell in the range of 50 to 100 nM. In the case of `COc1ncnc(OC)c1C(=O)Nc1nc(-c2ccc(C(F)(F)F)cn2)c(C)s1` [Example 95, 4,6-dimethoxy-N-{5-methyl-4-[5-(trifluoromethyl)pyridin-2-yl]-1,3-thiazol-2-yl}pyrimidine-5-carboxamide], the IC50 is under 50 nM. As to `COc1ncnc(OC)c1C(=O)Nc1nc(-c2ccc(C(F)(F)F)cn2)c(CO)s1` [Example 80, N-{5-(hydroxymethyl)-4-[5-(trifluoromethyl)pyridin-2-yl]-1,3-thiazol-2-yl}-4,6-dimethoxypyrimidine-5-carboxamide], the IC50 fell in the range of 50 to 100 nM.

`COc1ncnc(OC)c1C(=O)Nc1nc(C(F)(F)F)c(N2CCOCC2)s1` [Example 32, 4,6-dimethoxy-N-[5-(morpholin-4-yl)-4-(trifluoromethyl)-1,3-thiazol-2-yl]pyrimidine-5-carboxamide]: the IC50 was in the range of 100 to 500 nM.

Turning to `COc1ncnc(OC)c1C(=O)Nc1nc(CCOc2ccc(F)cc2)cs1` [Example 178, N-{4-[2-(4-fluorophenoxy)ethyl]-1,3-thiazol-2-yl}-4,6-dimethoxypyrimidine-5-carboxamide], the IC50 is 500 to 1000 nM. With `CCSc1ncnc(OC)c1C(=O)Nc1nc(C(F)(F)F)c(-c2ccccc2C#N)s1` [Example 160, N-[5-(2-cyanophenyl)-4-(trifluoromethyl)-1,3-thiazol-2-yl]-4-(ethylsulfanyl)-6-methoxypyrimidine-5-carboxamide], the 50% inhibitory concentration (IC50) is under 50 nM. As for `COc1ncnc(OC)c1C(=O)Nc1nc(C(F)(F)F)c(C2CCCOC2)s1` (stereo not drawn) [Example 148, 4,6-dimethoxy-N-[5-(tetrahydro-2H-pyran-3-yl)-4-(trifluoromethyl)-1,3-thiazol-2-yl]pyrimidine-5-carboxamide], the figure is 50 to 100 nM; as for `COc1ncnc(OC)c1C(=O)Nc1nc(C(F)(F)F)c(-c2cnn(C3CC3)c2)s1` [Example 168, N-[5-(1-cyclopropyl-1H-pyrazol-4-yl)-4-(trifluoromethyl)-1,3-thiazol-2-yl]-4,6-dimethoxypyrimidine-5-carboxamide], 50 to 100 nM.

For `COc1ncnc(OC)c1C(=O)Nc1nc(C(F)(F)F)c(-c2cccc(F)c2C#N)s1` [Example 25, N-[5-(2-cyano-3-fluorophenyl)-4-(trifluoromethyl)-1,3-thiazol-2-yl]-4,6-dimethoxypyrimidine-5-carboxamide], the IC50 was under 50 nM. Regarding `COc1ncnc(OC)c1C(=O)Nc1nc(C(F)(F)F)c(C2=COCC2)s1` [Example 145, N-(5-(4,5-dihydrofuran-3-yl)-4-(trifluoromethyl)thiazol-2-yl)-4,6-dimethoxypyrimidine-5-carboxamide], the IC50 is under 50 nM. As for `CO/N=C(\c1ccccc1)c1sc(NC(=O)c2c(OC)ncnc2OC)nc1C(F)(F)F` [Example 125, 4,6-dimethoxy-N-{5-[(E)-(methoxyimino)(phenyl)methyl]-4-(trifluoromethyl)-1,3-thiazol-2-yl}pyrimidine-5-carboxamide], the IC50 is under 50 nM.

Consider `COc1ncnc(OC)c1C(=O)Nc1nc(C(F)(F)F)c(/C(=N/O)c2ccc(F)cn2)s1` [Example 132, N-{5-[(E)-(5-fluoropyridin-2-yl)(hydroxyimino)methyl]-4-(trifluoromethyl)-1,3-thiazol-2-yl}-4,6-dimethoxypyrimidine-5-carboxamide], for which the half-inhibitory concentration (IC50) was under 50 nM. Take `COc1ncnc(OC)c1C(=O)Nc1nc(C(F)(F)F)c(CN2CC[C@@H](OC)C2)s1` [Example 60, 4,6-dimethoxy-N-[5-{[(3R)-3-methoxypyrrolidin-1-yl]methyl}-4-(trifluoromethyl)-1,3-thiazol-2-yl]pyrimidine-5-carboxamide]: the half-maximal inhibitory concentration (IC50) was 500 to 1000 nM.

As for `COc1ncnc(OC)c1C(=O)Nc1nc(COc2ccccc2C)cs1` [Example 179, 4,6-dimethoxy-N-{4-[(2-methylphenoxy)methyl]-1,3-thiazol-2-yl}pyrimidine-5-carboxamide], the IC50 fell in the range of 100 to 500 nM. `COc1ncnc(OC)c1C(=O)Nc1nc(C(F)(F)F)c(C2=CCCO2)s1` [Example 143, N-[5-(4,5-dihydrofuran-2-yl)-4-(trifluoromethyl)-1,3-thiazol-2-yl]-4,6-dimethoxypyrimidine-5-carboxamide]: the IC50 was under 50 nM.

Take `COc1ncnc(OC)c1C(=O)Nc1nc(C(F)(F)F)c(C2CC(C(C)C)=NO2)s1` (stereo not drawn) [Example 170, 4,6-dimethoxy-N-{5-[3-(propan-2-yl)-4,5-dihydro-1,2-oxazol-5-yl]-4-(trifluoromethyl)-1,3-thiazol-2-yl}pyrimidine-5-carboxamide]: the IC50 lay in the range of 100 to 500 nM. Regarding `CCOC(=O)c1sc(NC(=O)c2c(OC)ncnc2OC)nc1C(F)(F)F` [Example 21, ethyl 2-{[(4,6-dimethoxypyrimidin-5-yl)carbonyl]amino}-4-(trifluoromethyl)-1,3-thiazole-5-carboxylate], the IC50 is under 50 nM. The same measure for `COc1ncnc(OC)c1C(=O)Nc1nc(C(F)(F)F)c(C2CCCO2)s1` (stereo not drawn) [Example 144, 4,6-dimethoxy-N-[5-(tetrahydrofuran-2-yl)-4-(trifluoromethyl)-1,3-thiazol-2-yl]pyrimidine-5-carboxamide]: 50 to 100 nM; for “4,6-dimethoxy-N-[5-(2-methoxypyrimidin-5-yl)-4-(trifluoromethyl)-1,3-thiazol-2-yl]pyrimidine-5-carboxamide [Example 183]”: 100 to 500 nM. With `CCn1cc(-c2sc(NC(=O)c3c(OC)ncnc3OC)nc2C(F)(F)F)c(C)n1` [Example 200, N-[5-(1-ethyl-3-methyl-1H-pyrazol-4-yl)-4-(trifluoromethyl)-1,3-thiazol-2-yl]-4,6-dimethoxypyrimidine-5-carboxamide], the half-maximal inhibitory concentration (IC50) is under 50 nM. As to `COc1ncnc(OC)c1C(=O)Nc1nc(CCc2ccc(F)cc2)cs1` [Example 107, N-{4-[2-(4-fluorophenyl)ethyl]-1,3-thiazol-2-yl}-4,6-dimethoxypyrimidine-5-carboxamide], the IC50 lay in the range of 500 to 1000 nM.

Consider `COCc1sc(NC(=O)c2c(OC)ncnc2OC)nc1-c1ccc(C(F)(F)F)cn1` [Example 86, 4,6-dimethoxy-N-{5-(methoxymethyl)-4-[5-(trifluoromethyl)pyridin-2-yl]-1,3-thiazol-2-yl}pyrimidine-5-carboxamide], for which the 50% inhibitory concentration (IC50) was under 50 nM.
